The values below come from patent publication US11052127B2, “HSP for use in treatment for imiquimod related side effects” (Alfa Biogene International B.V., priority 2012, dated 2021).

Series [1] relates to BALBc mice. Kind of series: Ear pinnae thickness in mice treated with imiquimod cream with or without HSP70 cream. The note with it: Group 1, imiquimod 5% cream only, 3.125 mg daily dose. It is filed as in vivo. The method, then: (§1) The effect of HSP was tested on mice (BALBc mice, male 10-12 weeks old) The mice were divided in 5 groups of eight mice each: […] Group 2: mice were treated for 6 days as group 1. […] Group 3: mice were treated for 6 days as group 2, except for the cream comprising 250 μg/ml HSP (100 μg HSP per dose) Group 4: mice were treated as group 2 except for the carrier cream comprising no Hsp70. (mice were treated for six days, twice a day, once four hours before treatment with imiquimod, once four hours after treatment with imiquimod. Group 5: control group, no cream application. Day 1: initial evaluation for visible signs of psoriasis. […] Animal backs were shaved and photographs were taken. Thickness of both ear pinnae were measured. Cream application was performed creams. All animals were assessed and examined once daily for behavioural changes and adverse effects. Ear pinnae measurements are performed daily. Skin changes Study groups on ordinal and continuous outcomes were compared using the Kruskal-Wallis test with a […] adjustment for pairwise group comparisons for an overall statistical significance criteria of 0.05 for each outcome.

Series [2] concerns BALBc mice. Briefly: Histology of back skin samples: average epidermal thickness of the treated skin. As to conditions: day 7, Group 1, imiquimod only. It counts as in vivo.
Description: (§2) Group 1: mice were treated for 6 days on shaved back and right ear with one daily application of imiquimod 5% cream to the skin (3.125 mg daily dose)
(§3) Group 2: mice were treated for 6 days as group 1. In addition the part of the skin to which imiquimod was applied was treated twice daily with the cream comprising 50 μg/ml HSP (20 μg HSP per dose). Each day, the cream comprising HSP70 was applied to the skin in a 1 mm layer, 4 hours before application of the imiquimod, and again 4 hours after treatment with imiquimod.
Day 7: The animals were euthanized and skin tissue and blood was processed. Inflammatory markers were measured with Q-PCR (skin samples). Skin samples were histologically examined. […]
Series [3] deals with BALBc mice. Briefly: Visual appearance (scaling) of the backs of the mice, FIG. 1. It is filed as in vivo. The note with it: after 6 days of treatment.
Description: as §2, §3
From left to right: Group 2 (20 μg HSP), Group 3 (100 μg HSP), Group 4 (carrier cream only) and Group 1 (imiquimod only)
For the next series, the system named is patients. As to conditions: cited from earlier work.
In series [4] the test system is BALBc mice. Briefly: Cumulative PASI score (erythema, scales, thickness) of imiquimod-treated mice. It counts as in vivo. As to conditions: day 7; maximum of 12 points; Group 1, imiquimod only. On the procedure:
as §1, with “taken.” for “taken. Thickness of both ear pinnae were measured. Cream application was performed creams. All animals”, “by the PASI score. On day 7, photographs of all animals (backs) were taken to document progression of the disease.” for “and examined once daily for behavioural changes and adverse effects. Ear pinnae measurements are performed daily. Skin changes”

Where two headings read alike, the source gives them in different places.

Take `CC(C)Cn1cnc2c(N)nc3ccccc3c21` [imiquimod]: the ear thickness with BALBc mice [1] (Day 1) stood at 0.21 mm. Besides, the ear thickness with BALBc mice [1] (Day 5) was 0.28 mm. In the series on BALBc mice [1] (Day 6), the ear thickness worked out at 0.37 mm. In the series on BALBc mice [1] (Day 7), this compound yielded an ear thickness of 0.40 mm. In the series on BALBc mice [2], the “average epidermal thickness of the treated skin” value came to 58 μm. The “scaling of the backs of the mice” value with BALBc mice [3] is given as “severely scaled”. Further, in the series on patients (in females), the “remote site skin reaction: edema” value is 1%, the “remote site skin reaction: erythema” value is on record as 3% and the “remote site skin reaction: ulceration” value was 2%. In addition, in the series with patients (in males), the “remote site skin reaction: edema” value is reported as 1%, the “remote site skin reaction: erosion” value is recorded as 2%, the “remote site skin reaction: erythema” value is given as 1% and the “remote site skin reaction: induration” value is recorded as 1%. Besides, the “remote site skin reaction: scaling/excoriation/flaking” value in the series on patients (in males) is on record as 1%. Also, the “remote site reactions: bleeding, burning, itching, pain, dryness, scabbing, crusting, redness, hardening of the skin, tenderness, tinea cruris” value with patients (in vivo) is given as “more than 1 % of patients”. For the same compound, the “cumulative PASI score” value with BALBc mice [4] amounted to 6.5.
